Assay results published in the supplement of paper PMC10307832.

Columns and labels:
Test in all cases: relative viability (nuclei count vs DMSO), 5 days (fraction); higher = more cells survive
[1] = compound: CC1=NN=C(O1)C2=NN=C(C=C2)N3CCC(CC3)OC4=C(C=CC(=C4)F)Cl + Nc1ncn([C@H]2C[C@H](O)[C@@H](CO)O2)c(=O)n1 [Decitabine] (partner 2 µM)
Outline: (§1)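 Relative viability is defined as nuclei in treated wells over nuclei in vehicle wells. Duplicate plates were run and medians reported. Lung cancer cell lines in 1536-well plates were dosed by pin tool one day after seeding, with one drug or with a fixed anchor-drug dose plus five library-drug doses (not always all listed) in √10 steps, and nuclei were counted after 5 days.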

[2] = compound: CC1=NN=C(O1)C2=NN=C(C=C2)N3CCC(CC3)OC4=C(C=CC(=C4)F)Cl + CC(=O)c1c(C)c2cnc(Nc3ccc(N4CCNCC4)cn3)nc2n(C2CCCC2)c1=O [Palbociclib] (partner 0.5 µM)
Outline: as §1

[3] = compound: CC(C)C[C@@H](C(=O)N[C@H](C(=O)OC1CCCC1)c1ccccc1)[C@H](O)C(=O)NO [Tosedostat] + C[C@@H](Oc1cc(-c2cnn(C3CCNCC3)c2)cnc1N)c1c(Cl)ccc(F)c1Cl [Crizotinib] (partner 1 µM)
Outline: as §1

[4] = compound: CC(C)C[C@@H](C(=O)N[C@H](C(=O)OC1CCCC1)c1ccccc1)[C@H](O)C(=O)NO [Tosedostat] + C[C@]1(O)C[C@@H](c2nc(-c3ccc4ccc(-c5ccccc5)nc4c3)c3c(N)nccn32)C1 [Linsitinib] (partner 1 µM)
Outline: as §1

NCI-H2085
relative viability ([1]; first compound 0.253 µM): 0.479 | relative viability ([1]; first compound 0.8 µM): 0.477 | relative viability ([1]; first compound 2.53 µM): 0.446 | relative viability ([1]; first compound 8 µM): 0.406 | relative viability ([2]; first compound 0.253 µM): 0.425 | relative viability ([2]; first compound 0.8 µM): 0.431 | relative viability ([2]; first compound 2.53 µM): 0.469 | relative viability ([2]; first compound 8 µM): 0.37 | relative viability ([3]; first compound 0.02 µM): 0.842 | relative viability ([3]; first compound 0.06325 µM): 0.98 | relative viability ([3]; first compound 0.2 µM): 0.91 | relative viability ([3]; first compound 0.6325 µM): 0.896 | relative viability ([3]; first compound 2 µM): 0.814 | relative viability ([4]; first compound 0.02 µM): 0.935 | relative viability ([4]; first compound 0.06325 µM): 0.889 | relative viability ([4]; first compound 0.2 µM): 0.724 | relative viability ([4]; first compound 0.6325 µM): 0.838 | relative viability ([4]; first compound 2 µM): 0.836

NCI-H2087
relative viability ([1]; first compound 0.253 µM): 0.238 | relative viability ([1]; first compound 0.8 µM): 0.265 | relative viability ([1]; first compound 2.53 µM): 0.268 | relative viability ([1]; first compound 8 µM): 0.271 | relative viability ([2]; first compound 0.253 µM): 0.239 | relative viability ([2]; first compound 0.8 µM): 0.262 | relative viability ([2]; first compound 2.53 µM): 0.21 | relative viability ([2]; first compound 8 µM): 0.195 | relative viability ([3]; first compound 0.02 µM): 0.832 | relative viability ([3]; first compound 0.06325 µM): 0.823 | relative viability ([3]; first compound 0.2 µM): 0.643 | relative viability ([3]; first compound 0.6325 µM): 0.731 | relative viability ([3]; first compound 2 µM): 0.716 | relative viability ([4]; first compound 0.02 µM): 1 | relative viability ([4]; first compound 0.06325 µM): 0.969 | relative viability ([4]; first compound 0.2 µM): 0.951 | relative viability ([4]; first compound 0.6325 µM): 1 | relative viability ([4]; first compound 2 µM): 0.886

NCI-H2126
relative viability ([1]; first compound 0.253 µM): 0.542 | relative viability ([1]; first compound 0.8 µM): 0.549 | relative viability ([1]; first compound 2.53 µM): 0.488 | relative viability ([1]; first compound 8 µM): 0.52 | relative viability ([2]; first compound 0.253 µM): 0.368 | relative viability ([2]; first compound 0.8 µM): 0.338 | relative viability ([2]; first compound 2.53 µM): 0.326 | relative viability ([2]; first compound 8 µM): 0.353 | relative viability ([3]; first compound 0.02 µM): 0.974 | relative viability ([3]; first compound 0.06325 µM): 1.02 | relative viability ([3]; first compound 0.2 µM): 1.02 | relative viability ([3]; first compound 0.6325 µM): 0.954 | relative viability ([3]; first compound 2 µM): 0.935 | relative viability ([4]; first compound 0.02 µM): 0.586 | relative viability ([4]; first compound 0.06325 µM): 0.682 | relative viability ([4]; first compound 0.2 µM): 0.778 | relative viability ([4]; first compound 0.6325 µM): 0.677 | relative viability ([4]; first compound 2 µM): 0.623

NCI-H2347
relative viability ([1]; first compound 0.253 µM): 0.544 | relative viability ([1]; first compound 0.8 µM): 0.593 | relative viability ([1]; first compound 2.53 µM): 0.568 | relative viability ([1]; first compound 8 µM): 0.471 | relative viability ([2]; first compound 0.253 µM): 0.459 | relative viability ([2]; first compound 0.8 µM): 0.43 | relative viability ([2]; first compound 2.53 µM): 0.411 | relative viability ([2]; first compound 8 µM): 0.386 | relative viability ([3]; first compound 0.02 µM): 0.818 | relative viability ([3]; first compound 0.06325 µM): 0.666 | relative viability ([3]; first compound 0.2 µM): 0.676 | relative viability ([3]; first compound 0.6325 µM): 0.747 | relative viability ([3]; first compound 2 µM): 0.771 | relative viability ([4]; first compound 0.02 µM): 0.989 | relative viability ([4]; first compound 0.06325 µM): 0.967 | relative viability ([4]; first compound 0.2 µM): 0.992 | relative viability ([4]; first compound 0.6325 µM): 0.949 | relative viability ([4]; first compound 2 µM): 0.975

NCI-H2405
relative viability ([1]; first compound 0.253 µM): 0.452 | relative viability ([1]; first compound 0.8 µM): 0.43 | relative viability ([1]; first compound 2.53 µM): 0.485 | relative viability ([1]; first compound 8 µM): 0.443 | relative viability ([2]; first compound 0.253 µM): 0.319 | relative viability ([2]; first compound 0.8 µM): 0.349 | relative viability ([2]; first compound 2.53 µM): 0.332 | relative viability ([2]; first compound 8 µM): 0.346 | relative viability ([3]; first compound 0.02 µM): 0.873 | relative viability ([3]; first compound 0.06325 µM): 0.772 | relative viability ([3]; first compound 0.2 µM): 0.825 | relative viability ([3]; first compound 0.6325 µM): 0.771 | relative viability ([3]; first compound 2 µM): 0.791 | relative viability ([4]; first compound 0.02 µM): 0.883 | relative viability ([4]; first compound 0.06325 µM): 0.963 | relative viability ([4]; first compound 0.2 µM): 0.925 | relative viability ([4]; first compound 0.6325 µM): 0.965 | relative viability ([4]; first compound 2 µM): 0.862
